Experimental data from ChEMBL document CHEMBL4507285, “Data for DCP probe MRL-SYKi” (2021).

Legend:
[1] = tested on: Tyrosine-protein kinase ABL1 (Homo sapiens), P00519 [F317L]; conditions: Compound concentration 100.0 nM
[2] = tested on: Tyrosine-protein kinase ABL1 (Homo sapiens), P00519 [Q252H]; conditions: Compound concentration 100.0 nM
[3] = target: Ankyrin repeat and protein kinase domain-containing protein 1 (Homo sapiens) (UniProt Q8NFD2); conditions: Compound concentration 100.0 nM
[4] = target: Cytoplasmic tyrosine-protein kinase BMX (Homo sapiens) (UniProt P51813); conditions: Compound concentration 100.0 nM
[5] = target: Calcium/calmodulin-dependent protein kinase type II subunit alpha (Homo sapiens) (UniProt Q9UQM7); conditions: Compound concentration 100.0 nM
[6] = target: Calcium/calmodulin-dependent protein kinase type IV (Homo sapiens) (UniProt Q16566); conditions: Compound concentration 100.0 nM
[7] = target: Peripheral plasma membrane protein CASK (Homo sapiens) (UniProt O14936); conditions: Compound concentration 100.0 nM
[8] = target: Serine/threonine-protein kinase Chk2 (Homo sapiens) (UniProt O96017); conditions: Compound concentration 100.0 nM
[9] = target: Dual specificity protein kinase CLK2 (Homo sapiens) (UniProt P49760); conditions: Compound concentration 100.0 nM
[10] = target: Casein kinase I isoform alpha (Homo sapiens) (UniProt P48729); conditions: Compound concentration 100.0 nM
[11] = target: Epidermal growth factor receptor (Homo sapiens) (UniProt P00533); conditions: Compound concentration 100.0 nM
[12] = tested on: Fibroblast growth factor receptor 3 (Homo sapiens), P22607 [G697C]; conditions: Compound concentration 100.0 nM
[13] = target: Receptor-type tyrosine-protein kinase FLT3 (Homo sapiens) (UniProt P36888); conditions: Compound concentration 100.0 nM
[14] = tested on: Receptor-type tyrosine-protein kinase FLT3 (Homo sapiens), P36888 [UNDEFINED MUTATION]; conditions: Compound concentration 100.0 nM
[15] = tested on: Receptor-type tyrosine-protein kinase FLT3 (Homo sapiens), P36888 [N841I]; conditions: Compound concentration 100.0 nM
[16] = tested on: eIF-2-alpha kinase GCN2 (Homo sapiens), Q9P2K8 [S808G]; conditions: Compound concentration 100.0 nM
[17] = target: Tyrosine-protein kinase HCK (Homo sapiens) (UniProt P08631); conditions: Compound concentration 100.0 nM
[18] = tested on: Mast/stem cell growth factor receptor Kit (Homo sapiens), P10721 [V559D,V654A]; conditions: Compound concentration 100.0 nM
[19] = target: Mitogen-activated protein kinase kinase kinase kinase 5 (Homo sapiens) (UniProt Q9Y4K4); conditions: Compound concentration 100.0 nM
[20] = target: Tyrosine-protein kinase Mer (Homo sapiens) (UniProt Q12866); conditions: Compound concentration 100.0 nM
[21] = target: Hepatocyte growth factor receptor (Homo sapiens) (UniProt P08581); conditions: Compound concentration 100.0 nM
[22] = target: Misshapen-like kinase 1 (Homo sapiens) (UniProt Q8N4C8); conditions: Compound concentration 100.0 nM
[23] = target: Myosin light chain kinase (Homo sapiens) (UniProt Q32MK0); conditions: Compound concentration 100.0 nM
[24] = target: Myosin light chain kinase, smooth muscle (Homo sapiens) (UniProt Q15746); conditions: Compound concentration 100.0 nM
[25] = target: Serine/threonine-protein kinase 38-like (Homo sapiens) (UniProt Q9Y2H1); conditions: Compound concentration 100.0 nM
[26] = target: Serine/threonine-protein kinase Nek5 (Homo sapiens) (UniProt Q6P3R8); conditions: Compound concentration 100.0 nM
[27] = target: Serine/threonine-protein kinase Nek7 (Homo sapiens) (UniProt Q8TDX7); conditions: Compound concentration 100.0 nM
[28] = target: Serine/threonine-protein kinase PAK 1 (Homo sapiens) (UniProt Q13153); conditions: Compound concentration 100.0 nM
[29] = target: Cyclin-dependent kinase 17 (Homo sapiens) (UniProt Q00537); conditions: Compound concentration 100.0 nM
[30] = target: Platelet-derived growth factor receptor beta (Homo sapiens) (UniProt P09619); conditions: Compound concentration 100.0 nM
[31] = target: cAMP-dependent protein kinase catalytic subunit beta (Homo sapiens) (UniProt P22694); conditions: Compound concentration 100.0 nM
[32] = target: Serine/threonine-protein kinase N1 (Homo sapiens) (UniProt Q16512); conditions: Compound concentration 100.0 nM
[33] = target: Serine/threonine-protein kinase PLK1 (Homo sapiens) (UniProt P53350); conditions: Compound concentration 100.0 nM
[34] = target: Serine/threonine-protein kinase PLK4 (Homo sapiens) (UniProt O00444); conditions: Compound concentration 100.0 nM
[35] = target: Serine/threonine-protein kinase RIO1 (Homo sapiens) (UniProt Q9BRS2); conditions: Compound concentration 100.0 nM
[36] = target: Ribosomal protein S6 kinase alpha-4 (Homo sapiens) (UniProt O75676); conditions: Compound concentration 100.0 nM
[37] = target: Ribosomal protein S6 kinase alpha-5 (Homo sapiens) (UniProt O75582); conditions: Compound concentration 100.0 nM
[38] = target: Ribosomal protein S6 kinase beta-1 (Homo sapiens) (UniProt P23443); conditions: Compound concentration 100.0 nM
[39] = target: Serine/threonine-protein kinase SIK1 (Homo sapiens) (UniProt P57059); conditions: Compound concentration 100.0 nM
[40] = target: Serine/threonine-protein kinase TAO3 (Homo sapiens) (UniProt Q9H2K8); conditions: Compound concentration 100.0 nM
[41] = target: Serine/threonine-protein kinase TBK1 (Homo sapiens) (UniProt Q9UHD2); conditions: Compound concentration 100.0 nM
[42] = target: Dual specificity testis-specific protein kinase 1 (Homo sapiens) (UniProt Q15569); conditions: Compound concentration 100.0 nM
[43] = target: Serine/threonine-protein kinase TNNI3K (Homo sapiens) (UniProt Q59H18); conditions: Compound concentration 100.0 nM
[44] = target: Delta-type opioid receptor (Homo sapiens) (UniProt P41143); conditions: Compound concentration 10.0 uM
[45] = target: Muscarinic acetylcholine receptor M3 (Homo sapiens) (UniProt P20309); conditions: Compound concentration 10.0 uM

Sequence of Serine/threonine-protein kinase Chk2 (Homo sapiens) (O96017 whole entry): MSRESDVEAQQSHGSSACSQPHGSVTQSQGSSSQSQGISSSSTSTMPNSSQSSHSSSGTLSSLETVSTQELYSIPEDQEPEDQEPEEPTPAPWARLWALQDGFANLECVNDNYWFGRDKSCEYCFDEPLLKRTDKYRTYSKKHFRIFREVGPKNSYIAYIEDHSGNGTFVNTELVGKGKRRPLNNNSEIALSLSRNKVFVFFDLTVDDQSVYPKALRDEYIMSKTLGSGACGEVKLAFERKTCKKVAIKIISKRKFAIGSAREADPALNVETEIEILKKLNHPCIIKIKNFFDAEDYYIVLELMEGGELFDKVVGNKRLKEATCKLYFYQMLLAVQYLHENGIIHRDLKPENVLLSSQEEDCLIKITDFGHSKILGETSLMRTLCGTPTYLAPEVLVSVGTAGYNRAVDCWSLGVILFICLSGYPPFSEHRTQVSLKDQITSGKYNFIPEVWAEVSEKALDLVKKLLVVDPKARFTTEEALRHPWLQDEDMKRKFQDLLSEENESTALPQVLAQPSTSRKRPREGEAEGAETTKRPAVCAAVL
Sequence of Mitogen-activated protein kinase kinase kinase kinase 5 (Homo sapiens) (Q9Y4K4 whole entry, looked up): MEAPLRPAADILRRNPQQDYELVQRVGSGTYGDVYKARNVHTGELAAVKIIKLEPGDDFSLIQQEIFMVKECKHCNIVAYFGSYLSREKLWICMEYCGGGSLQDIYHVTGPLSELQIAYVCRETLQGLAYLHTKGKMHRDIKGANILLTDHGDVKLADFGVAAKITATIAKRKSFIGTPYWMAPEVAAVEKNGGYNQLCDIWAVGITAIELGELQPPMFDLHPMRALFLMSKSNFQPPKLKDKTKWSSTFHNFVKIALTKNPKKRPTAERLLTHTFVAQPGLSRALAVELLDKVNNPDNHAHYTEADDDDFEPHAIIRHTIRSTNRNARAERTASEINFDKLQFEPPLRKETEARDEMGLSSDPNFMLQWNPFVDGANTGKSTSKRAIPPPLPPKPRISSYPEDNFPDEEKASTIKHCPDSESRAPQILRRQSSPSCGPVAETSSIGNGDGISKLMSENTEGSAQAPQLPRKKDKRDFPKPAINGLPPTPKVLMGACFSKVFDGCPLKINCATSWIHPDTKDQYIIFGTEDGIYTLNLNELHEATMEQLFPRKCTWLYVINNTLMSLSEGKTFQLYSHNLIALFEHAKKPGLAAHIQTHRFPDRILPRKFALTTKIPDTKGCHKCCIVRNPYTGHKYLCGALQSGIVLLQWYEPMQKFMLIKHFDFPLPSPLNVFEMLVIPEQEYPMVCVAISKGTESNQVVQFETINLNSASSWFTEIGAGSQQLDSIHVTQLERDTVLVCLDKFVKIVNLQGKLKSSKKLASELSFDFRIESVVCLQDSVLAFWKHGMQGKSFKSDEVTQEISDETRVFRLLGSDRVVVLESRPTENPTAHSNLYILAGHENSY
Sequence of Misshapen-like kinase 1 (Homo sapiens) (Q8N4C8 whole entry, looked up): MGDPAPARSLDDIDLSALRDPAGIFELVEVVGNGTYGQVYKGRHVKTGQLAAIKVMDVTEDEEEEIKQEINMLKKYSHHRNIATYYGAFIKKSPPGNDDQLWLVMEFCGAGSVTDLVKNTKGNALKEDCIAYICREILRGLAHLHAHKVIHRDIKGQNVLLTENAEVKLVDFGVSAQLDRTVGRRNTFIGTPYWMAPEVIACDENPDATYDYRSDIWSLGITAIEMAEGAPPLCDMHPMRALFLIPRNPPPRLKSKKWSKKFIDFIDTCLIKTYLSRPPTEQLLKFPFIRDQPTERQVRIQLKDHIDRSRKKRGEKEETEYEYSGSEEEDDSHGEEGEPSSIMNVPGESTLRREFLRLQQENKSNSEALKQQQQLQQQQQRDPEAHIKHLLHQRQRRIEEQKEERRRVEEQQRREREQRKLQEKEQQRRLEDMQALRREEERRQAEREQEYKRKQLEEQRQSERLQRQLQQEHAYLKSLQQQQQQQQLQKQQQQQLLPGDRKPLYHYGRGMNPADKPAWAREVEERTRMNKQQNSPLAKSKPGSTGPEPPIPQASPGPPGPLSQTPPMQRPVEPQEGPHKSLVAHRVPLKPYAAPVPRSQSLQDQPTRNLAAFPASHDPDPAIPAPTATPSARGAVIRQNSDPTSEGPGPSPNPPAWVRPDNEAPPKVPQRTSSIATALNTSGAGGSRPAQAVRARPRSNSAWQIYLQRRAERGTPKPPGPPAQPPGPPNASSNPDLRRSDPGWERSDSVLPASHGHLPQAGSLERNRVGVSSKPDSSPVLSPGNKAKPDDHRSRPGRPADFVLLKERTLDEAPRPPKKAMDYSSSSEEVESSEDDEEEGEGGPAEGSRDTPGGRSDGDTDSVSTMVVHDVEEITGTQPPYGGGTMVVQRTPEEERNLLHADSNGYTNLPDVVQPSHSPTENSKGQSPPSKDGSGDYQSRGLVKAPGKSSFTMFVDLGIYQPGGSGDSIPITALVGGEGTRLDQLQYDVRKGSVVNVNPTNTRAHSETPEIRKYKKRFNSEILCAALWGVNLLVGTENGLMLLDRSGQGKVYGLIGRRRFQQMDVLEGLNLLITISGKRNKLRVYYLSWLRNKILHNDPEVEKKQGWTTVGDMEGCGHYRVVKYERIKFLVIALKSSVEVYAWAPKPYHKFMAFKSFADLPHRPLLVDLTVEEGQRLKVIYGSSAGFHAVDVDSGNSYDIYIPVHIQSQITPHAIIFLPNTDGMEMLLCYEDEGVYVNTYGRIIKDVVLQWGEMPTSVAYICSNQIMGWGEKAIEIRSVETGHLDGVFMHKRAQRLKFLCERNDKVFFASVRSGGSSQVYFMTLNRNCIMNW
Sequence of Serine/threonine-protein kinase PLK1 (Homo sapiens) (P53350 whole entry): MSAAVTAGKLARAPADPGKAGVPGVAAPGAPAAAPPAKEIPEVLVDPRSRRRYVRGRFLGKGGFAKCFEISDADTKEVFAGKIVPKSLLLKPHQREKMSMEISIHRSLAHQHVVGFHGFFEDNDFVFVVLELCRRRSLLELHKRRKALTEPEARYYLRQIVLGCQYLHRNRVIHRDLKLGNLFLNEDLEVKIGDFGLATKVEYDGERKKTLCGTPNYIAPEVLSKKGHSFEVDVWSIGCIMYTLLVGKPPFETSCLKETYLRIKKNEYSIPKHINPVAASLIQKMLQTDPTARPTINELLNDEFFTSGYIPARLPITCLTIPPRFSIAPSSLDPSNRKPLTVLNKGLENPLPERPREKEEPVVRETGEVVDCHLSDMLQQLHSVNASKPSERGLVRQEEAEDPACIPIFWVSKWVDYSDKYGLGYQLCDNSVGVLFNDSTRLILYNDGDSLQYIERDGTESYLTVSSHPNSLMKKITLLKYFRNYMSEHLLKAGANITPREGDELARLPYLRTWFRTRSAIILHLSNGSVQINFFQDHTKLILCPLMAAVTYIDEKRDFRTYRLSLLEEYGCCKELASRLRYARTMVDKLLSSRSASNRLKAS
Sequence of Fibroblast growth factor receptor 3 (Homo sapiens), P22607 [G697C] (P22607 whole entry G697C): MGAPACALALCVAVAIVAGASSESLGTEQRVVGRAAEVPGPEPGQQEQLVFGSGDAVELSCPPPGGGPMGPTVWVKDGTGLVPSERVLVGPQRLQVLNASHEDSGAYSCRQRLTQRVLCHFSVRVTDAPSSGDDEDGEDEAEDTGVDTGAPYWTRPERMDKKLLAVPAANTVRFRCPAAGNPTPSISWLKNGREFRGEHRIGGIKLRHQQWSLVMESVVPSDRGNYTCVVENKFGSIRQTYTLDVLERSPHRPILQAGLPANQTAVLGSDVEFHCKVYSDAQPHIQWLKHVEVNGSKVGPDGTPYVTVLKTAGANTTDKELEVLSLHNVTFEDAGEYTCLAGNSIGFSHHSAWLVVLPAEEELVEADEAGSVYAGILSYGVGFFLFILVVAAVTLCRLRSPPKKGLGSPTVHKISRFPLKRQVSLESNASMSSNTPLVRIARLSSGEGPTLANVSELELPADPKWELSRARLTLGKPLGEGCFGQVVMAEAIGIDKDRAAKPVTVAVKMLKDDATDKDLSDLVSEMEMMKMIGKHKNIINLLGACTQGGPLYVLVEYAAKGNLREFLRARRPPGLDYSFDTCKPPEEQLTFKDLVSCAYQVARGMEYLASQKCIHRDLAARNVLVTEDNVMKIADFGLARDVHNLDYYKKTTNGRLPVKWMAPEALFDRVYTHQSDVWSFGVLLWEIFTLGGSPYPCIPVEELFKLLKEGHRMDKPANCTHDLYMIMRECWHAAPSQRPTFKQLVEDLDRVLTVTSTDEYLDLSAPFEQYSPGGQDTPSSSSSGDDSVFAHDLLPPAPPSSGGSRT
Sequence of Ribosomal protein S6 kinase alpha-5 (Homo sapiens) (O75582 whole entry, looked up): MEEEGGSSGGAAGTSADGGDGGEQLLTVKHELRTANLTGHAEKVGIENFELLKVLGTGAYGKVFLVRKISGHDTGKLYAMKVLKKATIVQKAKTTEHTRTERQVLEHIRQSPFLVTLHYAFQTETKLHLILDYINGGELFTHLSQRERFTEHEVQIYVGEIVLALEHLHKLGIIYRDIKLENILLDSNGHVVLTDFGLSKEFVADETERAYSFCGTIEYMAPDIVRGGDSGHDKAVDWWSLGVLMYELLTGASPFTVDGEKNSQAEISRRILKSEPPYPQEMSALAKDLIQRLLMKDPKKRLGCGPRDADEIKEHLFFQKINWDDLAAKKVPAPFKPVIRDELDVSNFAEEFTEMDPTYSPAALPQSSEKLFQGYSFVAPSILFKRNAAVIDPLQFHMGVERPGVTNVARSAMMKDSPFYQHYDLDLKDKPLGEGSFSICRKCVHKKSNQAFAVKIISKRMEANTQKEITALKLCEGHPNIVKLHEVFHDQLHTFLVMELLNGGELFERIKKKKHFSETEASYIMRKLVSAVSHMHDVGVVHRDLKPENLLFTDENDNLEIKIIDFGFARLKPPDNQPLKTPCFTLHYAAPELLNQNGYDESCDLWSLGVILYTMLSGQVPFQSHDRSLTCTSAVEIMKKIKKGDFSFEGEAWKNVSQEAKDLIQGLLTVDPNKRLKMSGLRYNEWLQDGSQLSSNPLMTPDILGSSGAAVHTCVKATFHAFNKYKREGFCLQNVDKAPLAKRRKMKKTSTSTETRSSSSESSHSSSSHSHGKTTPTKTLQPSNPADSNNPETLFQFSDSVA

Cc1ccc(-c2cnc([C@@]3(O)CC[C@H](C(=O)O)C(C)(C)C3)s2)cc1Nc1cccc(C(F)(F)F)n1 [MRL-SYKi-NC]
residual activity [1]: 99.1%
residual activity [2]: 82.2%
residual activity [3]: 93.5%
residual activity [4]: 100%
residual activity [5]: 90.8%
residual activity [6]: 100%
residual activity [7]: 100%
residual activity [8]: 100%
residual activity [9]: 100%
residual activity [10]: 94%
residual activity [11]: 69.4%
residual activity [12]: 100%
residual activity [13]: 100%
residual activity [14]: 56.9%
residual activity [15]: 89.3%
residual activity [16]: 100%
residual activity [17]: 71.9%
residual activity [18]: 100%
residual activity [19]: 95.4%
residual activity [20]: 100%
residual activity [21]: 100%
residual activity [22]: 100%
residual activity [23]: 90.9%
residual activity [24]: 86.6%
residual activity [25]: 100%
residual activity [26]: 100%
residual activity [27]: 75.7%
residual activity [28]: 94.5%
residual activity [29]: 100%
residual activity [30]: 100%
residual activity [31]: 71.5%
residual activity [32]: 100%
residual activity [33]: 20.2%
residual activity [34]: 56.5%
residual activity [35]: 100%
residual activity [36]: 81.3%
residual activity [37]: 71.4%
residual activity [38]: 85.9%
residual activity [39]: 100%
residual activity [40]: 98.6%
residual activity [41]: 86.4%
residual activity [42]: 95.2%
residual activity [43]: 100%
inhibition [44]: 25.1%
inhibition [45]: 6.69%

Cc1cc(Nc2nccc(C)n2)cc(-c2cnc([C@@]3(O)CC[C@H](C(=O)O)C(C)(C)C3)s2)c1 [MRL-SYKi]
residual activity [1]: 100%
residual activity [2]: 32.4%
residual activity [3]: 100%
residual activity [4]: 95.1%
residual activity [5]: 100%
residual activity [6]: 92.3%
residual activity [7]: 64.9%
residual activity [8]: 100%
residual activity [9]: 98%
residual activity [10]: 61.6%
residual activity [11]: 100%
residual activity [12]: 100%
residual activity [13]: 94.2%
residual activity [14]: 100%
residual activity [15]: 100%
residual activity [16]: 56.2%
residual activity [17]: 83.3%
residual activity [18]: 100%
residual activity [19]: 95.4%
residual activity [20]: 81.5%
residual activity [21]: 100%
residual activity [22]: 80.7%
residual activity [23]: 100%
residual activity [24]: 92.9%
residual activity [25]: 100%
residual activity [26]: 74.2%
residual activity [27]: 92.9%
residual activity [28]: 100%
residual activity [29]: 73.2%
residual activity [30]: 100%
residual activity [31]: 100%
residual activity [32]: 96.9%
residual activity [33]: 100%
residual activity [34]: 100%
residual activity [35]: 100%
residual activity [36]: 100%
residual activity [37]: 100%
residual activity [38]: 78.2%
residual activity [39]: 94.3%
residual activity [40]: 100%
residual activity [41]: 55.5%
residual activity [42]: 100%
residual activity [43]: 100%
inhibition [44]: 12.8%
inhibition [45]: 17.4%
